Test results: patent US20240018136A1, “CDK Inhibitors And Their Use As Pharmaceuticals” (Prelude Therapeutics, Incorporated, priority 2022, published 2024)

Tests used:
OVCAR3 p-RB = assay: pRB ICW assay in OVCAR3 cells; format: cell-based; conditions: Homo sapiens, OVCAR-3, incubated with compound for 2 hours
Protocol: pRB ICW Assay in OVCAR3 Cells
OVCAR3 cells were maintained in RPMI (Corning, Catalog #: 10-040-CV) supplemented with 10% v/v FBS (Gibco, Catalog #: 26140-079), 1% v/v Penicillin Streptomycin (Gibco, Catalog #15140-122.) OVCAR3 cells grown at log phase were trypsinized, counted, and resuspended in fresh medium to reach a final density of 6.7e4 cells/mL and 75 μL of culture were dispensed into a 384-well plate (Falcon, cat #353962) using Multidrop Combi dispenser (Thermo Scientific). The next day, compounds were dispensed as a 9-point, ½ log serial dilution using a Tecan digital dispenser (D300e), and cells were incubated with compound for 2 hours in a humidified incubator at 37° C. A reference compound at a final concentration of 10 μM was used as a control for maximum inhibition. Each compound was tested in duplicates in each experiment. At the end of the incubation, 25 μL of 16% paraformaldehyde (Electron Microscopy, cat #15710) was slowly added to each well and the plate was incubated at room temperature (RT) for 30 minutes to fix cells. Cells were then permeabilized by incubating with 50 μL/well of wash buffer (lx PBS with 0.1% Triton X-100) 5×5 minutes, followed by 1 hour blocking with 30 μL/well of Odyssey blocking buffer (Li-COR, cat #927-40000), all at RT. Anti-phosphor RB antibody (Cell signaling 8516S) was diluted 1:1000 in Odyssey blocking buffer and 20 μL was added to all wells and incubated overnight in 4° C. with gently rocking. The next day, cells were washed 5×5 min with 50 μL/well of wash buffer, followed with 1 hour incubation with secondary antibody and DRAQ5 diluted in Odyssey blocking buffer (1:500 dilution for secondary antibody and 1:2000 dilution for DRAQ5), 5×5 min washes, and one last wash with water. Plates were dried in 37° C. oven for 5 min and scanned using Li-COR Odyssey CLx imaging system to acquire intensities at 700 and 800 nm channels.

CDK2/Cyclin E2 = CDK2/Cyclin E2 (Homo sapiens, UniProt P24941); assay: CDK2/CyclinE2 enzymatic activity assay (TR-FRET); format: biochemical; conditions: ATP 1 mM final, read-out: CDK2_E1 IC50
Protocol: CDK2/CyclinE2 Enzymatic Activity Assay
(§1) The inhibitory activity of compounds was evaluated in vitro using TR-FRET assay with white 384-well low volume microplate (Greiner Bio-One). CDK2/Cyclin E2 catalyzed phosphorylation of peptide in the presence and absence of compounds was measured and used in IC50 determination. Recombinant protein complex CDK2/Cyclin E2, expressed from insect cell, was purchased from ProQinase. Testing compounds were dissolved in DMSO at 1 mM and tested in 9-dose IC50 mode. The reaction mixture was prepared by mixing CDK2/CyclinE2 (1 nM final), ULight-4E-BP1 (50 nM final, Perkinelmer, TRF0128-D), and ATP (1 mM final) in assay buffer (20 mM of HEPES pH 7.4, 1 mM of EGTA, 0.05% BSA, 0.005% Tween 20, and 1 mM TCEP). The compound of interest in DMSO was added to each well in 3-fold serial dilution by dispenser (TECAN D300E) to make a 9.9 μL of reaction mixture. After 20 minutes preincubation at room temperature, 0.1 μL MgCl2 (10 mM final) was added to initiate the reaction. Following a 45 minute incubation at 37° C., the reaction was stopped by addition of 2 μL of quenching buffer consisting of Lance detection buffer (Perkinelmer CR97-100C), LANCE Ultra Europium-anti-P-4E-BP1 (Perkinelmer, TRF0216-D), EDTA, and incubate at room temperature for an additional 60 minutes in the dark. The reaction signal was measured by Envision multimode plate reader (PerkinElmer, 2102-0010). IC50 values were determined by fitting the data to the standard 4 parameters with Hill Slope using GraphPad Prism software.

CDK4/Cyclin D1 = molecular target: T1, CDK4/Cyclin D1 (Homo sapiens, UniProt P11802); assay: CDK4/CyclinD1 enzymatic activity assay (TR-FRET); format: biochemical; conditions: ATP 2 mM final, read-out: CDK4_D1 IC50
T1 construct: purchased ProQinase; host or cells: insect cell
Protocol: CDK4/CyclinD1 Enzymatic Activity Assay
as §1, with “Bio-One). CDK4/Cyclin D1” for “Bio-One). CDK2/Cyclin E2”, “in IC5” for “in IC50”, “complex CDK4/Cyclin D1,” for “complex CDK2/Cyclin E2,”, “mixing CDK4/CyclinD1” for “mixing CDK2/CyclinE2”, “ULight-4E-BP1 (100” for “ULight-4E-BP1 (50”, “ATP (2” for “ATP (1”

T1 sequence (P11802 whole entry): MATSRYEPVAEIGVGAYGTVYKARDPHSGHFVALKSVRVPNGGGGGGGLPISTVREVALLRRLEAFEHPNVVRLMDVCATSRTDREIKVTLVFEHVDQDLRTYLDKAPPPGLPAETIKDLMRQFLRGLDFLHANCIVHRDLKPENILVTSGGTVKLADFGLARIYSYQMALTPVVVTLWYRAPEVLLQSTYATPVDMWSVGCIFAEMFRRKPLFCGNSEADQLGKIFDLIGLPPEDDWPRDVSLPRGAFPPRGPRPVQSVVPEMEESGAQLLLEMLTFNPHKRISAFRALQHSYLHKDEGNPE
T1 sequence (P24385 whole entry partner): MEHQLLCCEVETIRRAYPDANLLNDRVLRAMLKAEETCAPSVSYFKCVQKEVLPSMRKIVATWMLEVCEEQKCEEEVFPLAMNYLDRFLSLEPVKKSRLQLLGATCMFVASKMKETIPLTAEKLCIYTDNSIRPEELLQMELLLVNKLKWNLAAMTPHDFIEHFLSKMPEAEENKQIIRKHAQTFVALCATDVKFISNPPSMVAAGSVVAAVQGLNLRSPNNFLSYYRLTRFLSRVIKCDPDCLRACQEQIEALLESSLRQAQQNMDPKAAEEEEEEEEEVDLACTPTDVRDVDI

Structure (SMILES)	IC50 (OVCAR3 p-RB)	IC50 (CDK2/Cyclin E2)	IC50 (CDK4/Cyclin D1)
Cc1nn(CCO)cc1-c1ncc(-c2nc(NC3CCN(S(C)(=O)=O)CC3)ncc2C(F)(F)F)s1 [Example 17, 2-[3-methyl-4-[5-[2-[(1-methylsulfonylpiperidin-4-yl)amino]-5-(trifluoromethyl)pyrimidin-4-yl]-1,3-thiazol-2-yl]pyrazol-1-yl]ethanol]	100 to 1000 nM	100 to 1000 nM	100 to 1000 nM
CNCc1ccc(-c2ncc(-c3nc(NC4CCN(S(C)(=O)=O)CC4)ncc3C(F)(F)F)s2)c(C)c1 [Example 13, 4-[2-[2-Methyl-4-(methylaminomethyl)phenyl]-1,3-thiazol-5-yl]-N-(1-methylsulfonylpiperidin-4-yl)-5-(trifluoromethyl)pyrimidin-2-amine]	100 to 1000 nM	≤ 100 nM	≤ 100 nM
C[C@@H]1CN(S(=O)(=O)c2cn(C)cn2)CC[C@@H]1Nc1ncc(C(F)(F)F)c(-c2cnc(CC(C)(C)O)s2)n1 [Example 72, 2-methyl-1-(5-(2-(((3R,4S)-3-methyl-1-((1-methyl-1H-imidazol-4-yl)sulfonyl)piperidin-4-yl)amino)-5-(trifluoromethyl)pyrimidin-4-yl)thiazol-2-yl)propan-2-ol]	100 to 1000 nM	≤ 100 nM	100 to 1000 nM
C[C@@H]1CN(S(=O)(=O)c2cn(C)cn2)CC[C@@H]1Nc1ncc(C(F)(F)F)c(-c2cnc(C(C)(C)O)s2)n1 [Example 96, 2-(5-(2-(((3R,4S)-3-methyl-1-((1-methyl-1H-imidazol-4-yl)sulfonyl)piperidin-4-yl)amino)-5-(trifluoromethyl)pyrimidin-4-yl)thiazol-2-yl)propan-2-ol]	≤ 100 nM	≤ 100 nM	100 to 1000 nM
CC(O)c1ncc(-c2nc(N[C@H]3CCN(S(=O)(=O)c4c[nH]cn4)C[C@H]3C)ncc2C(F)(F)F)s1 (stereo partly drawn) [Example 104, 1-(5-(2-(((3R,4S)-1-((1H-imidazol-4-yl)sulfonyl)-3-methylpiperidin-4-yl)amino)-5-(trifluoromethyl)pyrimidin-4-yl)thiazol-2-yl)ethan-1-ol]	100 to 1000 nM	≤ 100 nM	100 to 1000 nM
CC(O)c1ncc(-c2nc(N[C@H]3CCN(S(=O)(=O)c4cnn(C)c4)C[C@H]3F)ncc2C(F)(F)F)s1 (stereo partly drawn) [Example 98, 1-(5-(2-(((3R,4S)-3-fluoro-1-((1-methyl-1H-pyrazol-4-yl)sulfonyl)piperidin-4-yl)amino)-5-(trifluoromethyl)pyrimidin-4-yl)thiazol-2-yl)ethan-1-ol]	≤ 100 nM	≤ 100 nM	≤ 100 nM
COCc1nn(C)cc1S(=O)(=O)N1CCC(Nc2ncc(C(F)(F)F)c(-c3cnc(C(C)O)s3)n2)CC1 (stereo not drawn) [Example 86, 1-(5-(2-((1-((3-(methoxymethyl)-1-methyl-1H-pyrazol-4-yl)sulfonyl)piperidin-4-yl)amino)-5-(trifluoromethyl)pyrimidin-4-yl)thiazol-2-yl)ethan-1-ol]	≤ 100 nM	≤ 100 nM	≤ 100 nM

Results, then the molecule that gave them:

IC50 (OVCAR3 p-RB)	IC50 (CDK2/Cyclin E2)	IC50 (CDK4/Cyclin D1)	Structure (SMILES)
≤ 100 nM	≤ 100 nM	≤ 100 nM	CC(C)(O)Cc1ncc(-c2nc(NC3CCN(S(C)(=O)=O)CC3)ncc2C(F)(F)F)s1 [Example 68, 2-methyl-1-(5-(2-((1-(methylsulfonyl)piperidin-4-yl)amino)-5-(trifluoromethyl)pyrimidin-4-yl)thiazol-2-yl) propan-2-ol]
100 to 1000 nM	≤ 100 nM	≤ 100 nM	CC(C)N(C)c1ncc(-c2nc(NC3CCN(S(C)(=O)=O)CC3)ncc2C(F)(F)F)s1 [Example 22, N-isopropyl-N-methyl-5-(2-((1-(methylsulfonyl)piperidin-4-yl)amino)-5-(trifluoromethyl)pyrimidin-4-yl)thiazol-2-amine]
100 to 1000 nM	≤ 100 nM	≤ 100 nM	CC(C)Nc1ncc(-c2nc(NC3CCN(S(C)(=O)=O)CC3)ncc2C(F)(F)F)s1 [Example 41, 5-[2-[(1-Methylsulfonylpiperidin-4-yl)amino]-5-(trifluoromethyl)pyrimidin-4-yl]-N-propan-2-yl-1,3-thiazol-2-amine]
> 1000 nM	≤ 100 nM	100 to 1000 nM	Cc1ncc(-c2nc(NC3CCN(S(=O)(=O)N(C)C)CC3)ncc2C(F)(F)F)s1 [Example 47, N,N-Dimethyl-4-((4-(2-methylthiazol-5-yl)-5-(trifluoromethyl)pyrimidin-2-yl)amino)piperidine-1-sulfonamide]
100 to 1000 nM	≤ 100 nM	≤ 100 nM	CC(O)c1ncc(-c2nc(NC3CCN(S(C)(=O)=O)CC3)ncc2C(F)(F)F)s1 (stereo not drawn) [Example 81, 1-(5-(2-((1-(methylsulfonyl)piperidin-4-yl)amino)-5-(trifluoromethyl)pyrimidin-4-yl)thiazol-2-yl)ethan-1-ol]
100 to 1000 nM	≤ 100 nM	≤ 100 nM	CS(=O)(=O)N1CCC(Nc2ncc(C(F)(F)F)c(-c3cnc(C4CCOCC4)s3)n2)CC1 [Example 3, N-(1-methylsulfonylpiperidin-4-yl)-4-[2-(oxan-4-yl)-1,3-thiazol-5-yl]-5-(trifluoromethyl)pyrimidin-2-amine]
100 to 1000 nM	≤ 100 nM	≤ 100 nM	CN(c1ncc(-c2nc(NC3CCN(S(C)(=O)=O)CC3)ncc2C(F)(F)F)s1)[C@@H]1CCC[C@H]1O [Example 34, (1R,2R)-2-(methyl(5-(2-((1-(methylsulfonyl)piperidin-4-yl)amino)-5-(trifluoromethyl)pyrimidin-4-yl)thiazol-2-yl)amino)cyclopentan-1-ol]
100 to 1000 nM	≤ 100 nM	≤ 100 nM	C[C@@]1(O)CCC[C@H]1Nc1ncc(-c2nc(NC3CCN(S(C)(=O)=O)CC3)ncc2C(F)(F)F)s1 [Example 37, (1R,2R)-1-Methyl-2-[[5-[2-[(1-methylsulfonylpiperidin-4-yl)amino]-5-(trifluoromethyl)pyrimidin-4-yl]-1,3-thiazol-2-yl]amino]cyclopentan-1-ol]
100 to 1000 nM	≤ 100 nM	≤ 100 nM	CS(=O)(=O)N1CCC(Nc2ncc(C(F)(F)F)c(-c3cnc(NCCF)s3)n2)CC1 [Example 40, N-(2-Fluoroethyl)-5-[2-[(1-methylsulfonylpiperidin-4-yl)amino]-5-(trifluoromethyl)pyrimidin-4-yl]-1,3-thiazol-2-amine]
